Data: paper PMC12535377, “Synaptic and intrinsic plasticity mediated by CCK-type signaling coordinates behavioral changes during motivational state shifts” (Cell reports, 2025)
Non-standard residues stand in square brackets, D forms with d. Residues, ends and D or L forms follow the SMILES beside them. sY = N[C@@H](Cc1ccc(OS(=O)(=O)O)cc1)C(=O)O; pGlu = O=C1CC[C@@H](C(=O)O)N1

Experiments:
Aplysia californica = assay: Feeding behavior (food intake) in intact animals after peptide injection; format: in vivo; settings: for Behavioral effect (food intake), summary grade: Table S1 summary in words; for Food intake (seaweed consumed in a single meal): food-deprived animals
From the text: To explore the role of apCCKs as satiety signals in mollusks, we examined their effects on food intake. […] The remaining four forms had no impact (Figure S9). Moreover, [sY6, sY8]-apCCK1 slowed food consumption (Figure 2E), which could stem, in part, from a shift from ingestive to egestive patterns as the meal progressed. [sY6, sY8]-apCCK1 also extended the duration to consume one strip of seaweed compared to controls (Figure 2F), further mimicking natural satiety.
Behavioral experiments were conducted in two batches, each using animals from separate shipments. In the first batch (Figure 2), animals were larger, with an average body weight of 93.3 ± 4.8 g, and were food-deprived for 7 days prior to testing. In the second batch (Figure S9), animals were smaller (average weight: 70.6 ± 4.0 g) and were food-deprived for 5 days to account for their reduced size. In each experiment, two weight-matched animals were housed in separate round net cages (17 cm diameter and 17 cm height) that were placed in a 500 L tank filled with circulating aerated ASW (14°C–16°C). To ensure that the animals were responsive to food, they were first pretested with a small piece of seaweed. After this pretest, in each pair, one animal was injected (into the hemocoel using a syringe needle) with apCCKs freshly dissolved in 1.5 mL ASW, whereas the other was injected with 1.5 mL of ASW. Three minutes later, the feeding session commenced. Animals were hand-fed seaweed (Shirako, Tokyo, Japan) cut in 1 × 10 cm strips, weighing ~0.1 g, increasing 10-fold when hydrated. This hand-feeding approach has been used in prior study of Aplysia feeding behavior.[146],[147] The consumed seaweed amount was converted to hydrated weight and normalized to the animal’s body weight. Each strip of seaweed was delivered to the mouth area with forceps. Feeding was terminated after 1 h or when animals stopped ingesting seaweed for 3 min.

[1] = test system: CBI-2-elicited feeding motor programs; assay: CBI-2-elicited feeding motor programs in isolated cerebral and buccal ganglia; set-up: species or system Aplysia californica; settings: for B8 activity (frequency) during retraction: 10^-6 M and 10^-5 M; for Feeding program effect, summary grade: Table S1 summary in words
Procedure: To explore the neural basis of the behavioral effects of apCCKs, we examined their modulation of feeding-motor programs in isolated ganglia. All eight forms of apCCKs were tested on programs induced by CBI-2, a command-like interneuron that is active during food-elicited feeding behavior[56] and provides potent excitatory inputs to buccal central pattern generator (CPG) interneurons,[54],[77] orchestrating ingestive motor programs (Figure S23A). Stable single-cycle motor programs were evoked by stimulating CBI-2 at 8–10 Hz throughout the protraction phase with a 90-s intertrial interval. Two concentrations, 10^−6 M and 10^−5 M, of apCCKs were tested.
(§1) Intracellular and extracellular recordings were made as described previously.[57]–[59],[61],[151] To prevent movements of ganglia caused by myoactive apCCK (especially [sY8]-apCCK1 and [sY6, sY8]-apCCK1) during bath application, we treated the ganglia with 0.8% protease IX for 1–2 min prior to desheathing. Subsequently, ganglia were desheathed, transferred to a recording chamber containing ~1.5 mL of ASW (460 mM NaCl, 10 mM KCl, 11mM CaCl2, 55 mM MgCl2, and 10 mM HEPES, pH 7.6), continuously perfused at 0.3 mL/min, and maintained at 14°C–17°C. The experiments examining the effects of apCCKs on excitability of B20/B34/B61/62/B65/B64 neurons were performed in a high divalent saline (368 mM NaCl, 8 mM KCl, 13.8 mM CaCl2, 115 mM MgCl2, and 10 mM HEPES, pH 7.6), which increases the spiking threshold of neurons and therefore curtails polysynaptic influences. Intracellular recordings were obtained using 5–10 MΩ sharp microelectrodes filled with an electrolyte (0.6 M K2SO4 plus 60 mM KCl). Extracellular recordings were acquired from polyethylene suction electrodes. Grass S88 and WPI Pulsemaster A300 stimulators were used to provide timing signals for intracellular and extracellular stimulation. To determine the effects of various forms of apCCKs on Aplysia feeding programs, we performed experiments with the cerebral and buccal ganglia. Freshly made apCCK solution in ASW was perfused into the recording chamber. Feeding-motor programs were elicited by stimulation of command-like neuron CBI-2 at 8–10 Hz or stimulation of the EN at 2 Hz, 3 ms, 15 V, and were monitored by bursting activity of the I2 nerve of the buccal ganglion.[58],[59],[61] Typically, we recorded from motor neuron B8, and one interneuron, e.g., B40 or B20. To determine effects of apCCKs on synaptic strength, we stimulated presynaptic neuron, CBI-2, B34 (plus 1 nA current) or B65 at 10 Hz for 2 s for several trials and waited 1 min between each trial. The stimulation duration for each trial was set at 2 s because this allows the expression of synaptic facilitation without evoking too many spikes. Typically, the amplitude of the last EPSP at each concentration of peptides was quantified unless otherwise stated.

[2] = test system: EN-elicited feeding motor programs; assay: EN-elicited egestive motor programs in isolated ganglia; set-up: species or system Aplysia californica; settings: EN stimulation at 2 Hz
From the text: Although protraction (B61/62) activity is inhibited by apCCKs during CBI-2-elicited programs, this might not be the case for the egestive motor programs elicited by EN stimulation, which could contribute positively to satiety. We therefore examined [sY8]-apCCK1 effects on B61/62 activity in EN-elicited egestive motor programs. […] This difference may be explained in part by effects on the interneuron B65, which is strongly active during EN programs but not during CBI-2 programs,[56],[81]–[83] whereas the opposite is true for B34.[54],[61] B65 elicits fast excitatory postsynaptic potentials (EPSPs) in B61/62.[81] [sY8]-apCCK1 increased B65 excitability (Figures 6M and 6N) and EPSPs from B65 to B61/62 (Figures 6O and 6P), which could account for the increase of B61/62 activity during EN programs.
Intracellular and extracellular recordings were made as described previously.[57]–[59],[61],[151] […] Feeding-motor programs were elicited by stimulation of command-like neuron CBI-2 at 8–10 Hz or stimulation of the EN at 2 Hz, 3 ms, 15 V, and were monitored by bursting activity of the I2 nerve of the buccal ganglion.[58],[59],[61] Typically, we recorded from motor neuron B8, and one interneuron, e.g., B40 or B20. […] Typically, the amplitude of the last EPSP at each concentration of peptides was quantified unless otherwise stated.

[3] = test system: B20, B40, B64, B34, B61/62, B65 neurons and CBI-2 synapses; assay: Electrophysiology: excitability and synaptic strength of identified feeding-circuit neurons; set-up: species or system Aplysia californica
From the text: To characterize apCCK mechanisms of action, we investigated their effects on synaptic and intrinsic plasticity of key circuit elements. […] However, [sY8]-apCCK1 decreased synaptic strength between CBI-2 and B40 (Figures S26C and S26D).
as §1

[4] = injection into hemocoel of apCCK solutions (10^-7 M or 10^-6 M) vs ASW
[5] = presynaptic stimulation 10 Hz for 2 s, last EPSP

SMILES: CC(C)C[C@H](NC(=O)CNC(=O)[C@H](Cc1ccc(OS(=O)(=O)O)cc1)NC(=O)[C@H](CC(=O)O)NC(=O)[C@H](Cc1ccc(OS(=O)(=O)O)cc1)NC(=O)[C@H](CO)NC(=O)[C@H](Cc1c[nH]c2ccccc12)NC(=O)[C@H](C)NC(=O)CNC(=O)[C@@H]1CCC(=O)N1)C(=O)NCC(=O)NCC(=O)NCC(=O)N[C@@H](CCCNC(=N)N)C(=O)N[C@@H](Cc1ccccc1)C(N)=O [[sY6, sY8]-apCCK1] ([pGlu]GAWS[sY]D[sY]GLGGGRF-NH2)
- Behavioral effect (food intake), summary grade (Aplysia californica): Strong
- Time to consume one strip of seaweed (average of the first three strips) (Aplysia californica; injected with 10^-8 M, compared with control animals): took longer
- Food intake (seaweed consumed in a single meal) (Aplysia californica; [4]): strongly reduced food intake
- Protraction duration of CBI-2 programs ([1]; 10^-6 M and 10^-5 M tested): shortened
- B8 activity (frequency) during retraction ([1]; CBI-2 programs): reduced
- Feeding program effect, summary grade [1]: Strong

SMILES: CC(C)C[C@H](NC(=O)CNC(=O)[C@H](Cc1ccc(O)cc1)NC(=O)[C@H](CC(=O)O)NC(=O)[C@H](Cc1ccc(OS(=O)(=O)O)cc1)NC(=O)[C@H](CO)NC(=O)[C@H](Cc1c[nH]c2ccccc12)NC(=O)[C@H](C)NC(=O)CNC(=O)[C@@H]1CCC(=O)N1)C(=O)NCC(=O)NCC(=O)NCC(=O)N[C@@H](CCCNC(=N)N)C(=O)N[C@@H](Cc1ccccc1)C(N)=O [[sY6]-apCCK1] ([pGlu]GAWS[sY]DYGLGGGRF-NH2)
- Behavioral effect (food intake), summary grade (Aplysia californica): No effect
- Food intake (seaweed consumed in a single meal) (Aplysia californica; [4]): did not influence feeding
- Feeding program effect, summary grade [1]: No effect

SMILES: CC(C)C[C@H](NC(=O)CNC(=O)[C@H](Cc1ccc(OS(=O)(=O)O)cc1)NC(=O)[C@H](CC(=O)O)NC(=O)[C@H](Cc1ccc(O)cc1)NC(=O)[C@H](CO)NC(=O)[C@H](Cc1c[nH]c2ccccc12)NC(=O)[C@H](C)NC(=O)CNC(=O)[C@@H]1CCC(=O)N1)C(=O)NCC(=O)NCC(=O)NCC(=O)N[C@@H](CCCNC(=N)N)C(=O)N[C@@H](Cc1ccccc1)C(N)=O [[sY8]-apCCK1] ([pGlu]GAWSYD[sY]GLGGGRF-NH2)
- Behavioral effect (food intake), summary grade (Aplysia californica): Strongest
- Food intake (seaweed consumed in a single meal) (Aplysia californica; injection into hemocoel, 10^-8 M or 10^-7 M): completely inhibiting consumption
- B20 firing frequency in CBI-2 programs ([1]; 10^-6 M): increased
- Type of CBI-2-elicited motor program ([1]; 10^-6 M): shifted ingestive programs to egestive
- B34 frequency in CBI-2 programs ([1]; 10^-6 M and 10^-5 M tested): decreased
- B40 firing frequency in CBI-2 programs ([1]; 10^-6 M and 10^-5 M tested): decreased
- B61/62 frequency in CBI-2 programs ([1]; 10^-6 M and 10^-5 M tested): decreased
- Protraction duration of CBI-2 programs ([1]; 10^-6 M and 10^-5 M tested): shortened
- Retraction duration of CBI-2 programs ([1]; 10^-6 M and 10^-5 M tested): shortened
- B8 activity during protraction ([1]; CBI-2 programs, 10^-5 M): decreased
- B8 activity during protraction ([1]; CBI-2 programs, 10^-6 M): significantly increased
- B8 activity (frequency) during retraction ([1]; CBI-2 programs): significantly decreased
- Firing frequency of the I2 nerve ([1]; CBI-2 programs, 10^-6 M and 10^-5 M tested): significantly decreased
- Feeding program effect, summary grade [1]: Strongest
- B61/62 firing frequency in EN-elicited programs [2]: increased
- B40 excitability [3]: enhanced
- Synaptic strength between CBI-2 and B40 [3]: decreased
- B20 excitability ([3]; 10^-6 M, high divalent saline): significantly enhanced
- EPSPs from B65 to B61/62 ([3]; first EPSP of each stimulation trial): increased
- B34 excitability ([3]; high divalent saline): enhanced
- B61/62 excitability ([3]; high divalent saline): enhanced
- B64 excitability ([3]; high divalent saline): enhanced
- B65 excitability ([3]; high divalent saline): increased
- B20 excitability ([3]; higher concentration (10^-5 M), high divalent saline): no significant effect
- Synaptic strength between B34 and B61/62 [3, 5]: decreased
- Synaptic strength between CBI-2 and B34 [3, 5]: decreased
- Synaptic strength between CBI-2 and B61/62 [3, 5]: decreased

SMILES: CC(C)C[C@H](NC(=O)CNC(=O)[C@H](Cc1ccc(O)cc1)NC(=O)[C@H](CC(=O)O)NC(=O)[C@H](Cc1ccc(O)cc1)NC(=O)[C@H](CO)NC(=O)[C@H](Cc1c[nH]c2ccccc12)NC(=O)[C@H](C)NC(=O)CNC(=O)[C@@H]1CCC(=O)N1)C(=O)NCC(=O)NCC(=O)NCC(=O)N[C@@H](CCCNC(=N)N)C(=O)N[C@@H](Cc1ccccc1)C(N)=O [apCCK1] ([pGlu]GAWSYDYGLGGGRF-NH2)
- Behavioral effect (food intake), summary grade (Aplysia californica): No effect
- Food intake (seaweed consumed in a single meal) (Aplysia californica; [4]): did not influence feeding
- Feeding program effect, summary grade [1]: No effect
